# Experimental data published in article PMC11648915, “Identification and development of TRPM4 antagonists to counteract neuronal excitotoxicity” (iScience, 2024).
# Like-named read-outs stand apart in the source and are kept apart here.
# Columns and labels:
# CYP3A4 = molecular target: T1, CYP3A4 (Homo sapiens, UniProt P08684); assay: CYP inhibition assay 3A4; assay type: in vitro ADME
# T1 construct: purchased BD Gentest
# Description: (§1) The half-maximal inhibitory concentration (IC50) for cytochrome P450 (CYP) enzymes was determined using an in vitro enzyme inhibition assay. Recombinant CYP enzymes or human liver microsomes from BD Gentest, in 0.1 M phosphate buffer pH 7.4, containing native CYP enzymes were incubated with the test compound at various concentrations (1, 3, 10 and 30 μM) and containing 0.5% DMSO and 0.1% BSA final concentrations. 1 mM of NADPH cofactor was added and the reaction was started by a rapid increase of temperature until 37°C.
# [1] = Microsome clearance (human); assay type: in vitro ADME; conditions: human liver microsomes, 45 min, NADPH, read-out: Microsomes (h) clearance (converted)
# Description: (§2) Human or mouse liver microsomes were incubated with the test compound at a concentration of 1 μM for 45 min in the presence of cofactor (NADPH in excess). Samples were collected at various time points, and % remaining of test compound was determined using mass spectrometry (LC-MS/MS) to calculate hepatic clearance rate (L/h/kg).
# CYP2D6 = molecular target: T2, CYP2D6 (Homo sapiens, UniProt P10635); assay: CYP inhibition assay 2D6; assay type: in vitro ADME
# T2 construct: purchased BD Gentest
# T2 sequence (P10635 whole entry): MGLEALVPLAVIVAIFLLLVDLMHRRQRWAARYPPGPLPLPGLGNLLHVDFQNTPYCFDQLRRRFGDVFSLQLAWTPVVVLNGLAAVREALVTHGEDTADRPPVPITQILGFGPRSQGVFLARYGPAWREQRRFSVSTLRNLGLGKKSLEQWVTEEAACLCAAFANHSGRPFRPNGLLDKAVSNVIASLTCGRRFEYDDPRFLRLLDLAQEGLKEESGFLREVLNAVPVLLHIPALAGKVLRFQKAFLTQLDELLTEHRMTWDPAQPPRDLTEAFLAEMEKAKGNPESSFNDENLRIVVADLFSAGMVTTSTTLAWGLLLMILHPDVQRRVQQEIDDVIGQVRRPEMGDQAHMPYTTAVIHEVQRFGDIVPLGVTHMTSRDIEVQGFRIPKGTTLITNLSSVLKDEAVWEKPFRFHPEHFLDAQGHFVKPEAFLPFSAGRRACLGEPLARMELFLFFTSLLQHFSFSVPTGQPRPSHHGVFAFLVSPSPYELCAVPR
# Description: as §1
# human TRPM5 = molecular target: T3, human TRPM5 (Homo sapiens, UniProt Q9NZQ8); assay: QPatch automated patch clamp on TRPM5-expressing HEK293 cells; assay type: cell-based; conditions: hsTRPM5-expressing HEK293 cells
# T3 sequence (Q9NZQ8 1-1165): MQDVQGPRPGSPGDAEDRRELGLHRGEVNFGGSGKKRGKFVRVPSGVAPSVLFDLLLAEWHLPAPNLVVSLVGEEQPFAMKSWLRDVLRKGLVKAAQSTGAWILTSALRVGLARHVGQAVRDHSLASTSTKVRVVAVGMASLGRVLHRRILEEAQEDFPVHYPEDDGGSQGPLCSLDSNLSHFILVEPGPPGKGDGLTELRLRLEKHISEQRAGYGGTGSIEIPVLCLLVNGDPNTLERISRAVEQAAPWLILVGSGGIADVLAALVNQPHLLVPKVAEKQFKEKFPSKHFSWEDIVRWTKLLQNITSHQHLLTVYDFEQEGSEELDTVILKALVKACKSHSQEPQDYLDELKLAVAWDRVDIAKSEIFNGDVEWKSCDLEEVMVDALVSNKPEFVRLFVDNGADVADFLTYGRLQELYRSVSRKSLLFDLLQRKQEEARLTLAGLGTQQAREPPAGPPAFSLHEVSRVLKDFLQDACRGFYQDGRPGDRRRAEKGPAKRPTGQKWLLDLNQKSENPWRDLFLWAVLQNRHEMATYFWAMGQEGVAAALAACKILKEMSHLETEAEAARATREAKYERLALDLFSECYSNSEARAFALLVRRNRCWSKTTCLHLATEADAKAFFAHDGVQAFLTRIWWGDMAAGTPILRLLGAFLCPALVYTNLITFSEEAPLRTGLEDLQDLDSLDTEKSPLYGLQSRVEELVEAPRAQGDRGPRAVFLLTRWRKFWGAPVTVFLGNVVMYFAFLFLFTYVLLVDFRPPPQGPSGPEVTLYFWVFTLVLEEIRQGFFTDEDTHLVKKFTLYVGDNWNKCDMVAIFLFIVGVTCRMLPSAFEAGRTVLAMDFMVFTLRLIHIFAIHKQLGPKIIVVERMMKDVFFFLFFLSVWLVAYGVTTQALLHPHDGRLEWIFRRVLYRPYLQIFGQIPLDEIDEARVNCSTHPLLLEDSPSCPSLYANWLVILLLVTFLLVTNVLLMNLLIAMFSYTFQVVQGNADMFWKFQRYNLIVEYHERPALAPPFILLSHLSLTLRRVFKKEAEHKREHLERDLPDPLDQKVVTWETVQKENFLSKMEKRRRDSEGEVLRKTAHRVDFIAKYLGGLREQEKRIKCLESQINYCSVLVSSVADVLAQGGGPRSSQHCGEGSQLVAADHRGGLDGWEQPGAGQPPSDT
# Source text: The counter screening phase involved the inclusion of hsTRPM5-expressing HEK293 cells, as closest homologue, and the parental HEK293 cell line to evaluate selectivity. […] Based on categorization of biological activity, mass spectrometry quality control, and aspects of medicinal chemistry, we prioritized 144 selective hsTRPM4 compounds. These compounds were then subjected to automated patch clamp electrophysiology measurements (QPatch[58]) to evaluate their activity profiles and IC50 values (Figures 1A, S1, and S2).
# (§3) QPatchHTX, an automated electrophysiology platform, was used in single hole mode. One day before use human TRPM4- or TRPM5-expressing HEK293 cells were seeded in a T75 flask at a density of 53k cells per cm^2 and at passages < 23. For QPatch assays, cells were harvested and re-suspended in SFM (Gibco, 11686029). The extracellular solution was (in mM): CaCl2 (7), MgCl2 (2), KCl (5), HEPES (10), NaCl (70), NMDG (70); pH 7.4 with NaOH. The intracellular solution was (in mM): HEPES (10), NMDG (100), NaCl (50), EGTA (20), MgCl2 (1), CaCl2 (21); pH 7.2 with HCl. After break-in, channels were consistently open and current through the channels could be observed at a voltage ramp from –100 mV to +100 mV over 500 ms. This protocol was repeated every 7 seconds. After saline and vehicle application, the channel was desensitized and residual current was used as baseline. FFA was used as reference compound and applied cumulatively with each concentration incubating at a minimum of 20 voltage protocol runs (140 seconds) with the current after addition of FFA being calculated as full block. […] Each compound was measured at least 3 time independently.
# [2] = In vivo pharmacokinetics after single i.p. or i.v. dose; conditions: female, C57BL/6J, mouse
# Description: Next, to assess in vivo availability of the Series 1–3 compounds, we evaluated drug metabolism and pharmacokinetics (DMPK). We measured compound concentrations in plasma, heart, and brain at several time points after intraperitoneal (i.p.) or intravenous (i.v.) single-dose injections.
# Half-life and bioavailability were calculated by noncompartmental analysis using the R package PK[84] (v1.3-6).
# [3] = Microsome clearance (mouse); assay type: in vitro ADME; conditions: mouse liver microsomes, 45 min, NADPH
# Description: as §2
# [4] = molecular target: potassium channel human Ether-a-go-go Related Gene (hERG) (Homo sapiens, UniProt Q12809); assay: hERG channel inhibition; assay type: cell-based
# potassium channel human Ether-a-go-go Related Gene (hERG), sequence (Q12809 whole entry): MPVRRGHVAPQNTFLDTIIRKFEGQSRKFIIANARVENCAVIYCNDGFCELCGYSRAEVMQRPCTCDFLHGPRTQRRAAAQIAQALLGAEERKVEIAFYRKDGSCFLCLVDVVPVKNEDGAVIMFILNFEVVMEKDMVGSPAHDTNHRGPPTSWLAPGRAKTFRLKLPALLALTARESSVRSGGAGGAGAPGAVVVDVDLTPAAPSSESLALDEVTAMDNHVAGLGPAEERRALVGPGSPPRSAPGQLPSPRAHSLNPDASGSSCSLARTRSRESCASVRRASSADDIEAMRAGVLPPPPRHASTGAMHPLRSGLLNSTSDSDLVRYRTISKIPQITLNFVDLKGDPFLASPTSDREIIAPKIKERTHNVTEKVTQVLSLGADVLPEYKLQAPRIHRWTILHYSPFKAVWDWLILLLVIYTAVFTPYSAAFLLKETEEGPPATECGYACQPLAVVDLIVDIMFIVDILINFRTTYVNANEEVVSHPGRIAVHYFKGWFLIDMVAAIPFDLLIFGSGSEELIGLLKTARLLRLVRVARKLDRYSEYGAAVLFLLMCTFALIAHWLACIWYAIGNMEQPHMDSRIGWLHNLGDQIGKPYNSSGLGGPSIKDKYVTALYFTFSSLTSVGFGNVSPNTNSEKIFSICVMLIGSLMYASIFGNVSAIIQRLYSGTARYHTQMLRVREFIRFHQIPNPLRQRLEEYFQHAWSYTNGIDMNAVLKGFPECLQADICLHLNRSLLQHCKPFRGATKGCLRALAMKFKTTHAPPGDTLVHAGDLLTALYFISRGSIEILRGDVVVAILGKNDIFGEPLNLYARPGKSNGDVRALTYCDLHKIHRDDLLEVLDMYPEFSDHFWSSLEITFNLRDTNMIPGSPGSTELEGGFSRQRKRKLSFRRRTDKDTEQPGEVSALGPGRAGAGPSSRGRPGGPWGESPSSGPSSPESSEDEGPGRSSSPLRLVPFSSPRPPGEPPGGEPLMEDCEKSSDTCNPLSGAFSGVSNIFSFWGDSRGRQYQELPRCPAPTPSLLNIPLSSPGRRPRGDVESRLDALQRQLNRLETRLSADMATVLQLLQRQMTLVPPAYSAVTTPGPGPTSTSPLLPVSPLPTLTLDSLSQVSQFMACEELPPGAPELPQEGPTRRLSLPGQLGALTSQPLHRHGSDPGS
# Source text: We next used in vitro assays to test absorption, distribution, metabolism, excretion and toxicity (ADMET) parameters for selected compounds. We assessed compound absorption using parallel artificial membrane permeability (PAMPA) and Caco-2 cell permeability assays (cut-off criterion >2 × 10^−6 cm s^−1). […] To assess potential off-target activity of our compounds that could be relevant for safety in humans, we conducted comprehensive in vitro pharmacology using the commercially available and widely used SafetyScreen44 interaction panel[60] covering eight protein families.
# CYP 2C19 = molecular target: T4, CYP 2C19 (Homo sapiens, UniProt P33261); assay: CYP inhibition assay 2C19; assay type: in vitro ADME
# T4 construct: purchased BD Gentest
# T4 sequence (P33261 whole entry): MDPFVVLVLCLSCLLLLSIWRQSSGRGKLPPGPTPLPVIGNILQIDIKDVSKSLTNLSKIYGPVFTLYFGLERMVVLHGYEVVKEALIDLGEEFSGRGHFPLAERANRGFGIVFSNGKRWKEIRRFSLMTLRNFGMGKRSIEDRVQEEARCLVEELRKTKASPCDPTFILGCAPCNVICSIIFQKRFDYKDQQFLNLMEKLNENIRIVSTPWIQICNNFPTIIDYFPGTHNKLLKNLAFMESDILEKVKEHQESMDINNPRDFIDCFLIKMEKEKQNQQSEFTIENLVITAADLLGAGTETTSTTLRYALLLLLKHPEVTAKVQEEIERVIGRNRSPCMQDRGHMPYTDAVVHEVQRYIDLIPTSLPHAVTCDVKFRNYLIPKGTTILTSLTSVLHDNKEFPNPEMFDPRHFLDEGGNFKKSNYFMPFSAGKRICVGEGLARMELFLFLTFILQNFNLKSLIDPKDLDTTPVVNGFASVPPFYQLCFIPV
# Description: as §1
# [5] = Parallel Artificial Membrane Permeability Assay (PAMPA); assay type: in vitro ADME; conditions: pH not given; for Papp at 16 h, 200 μM: PAMPA, read-out: PAMPA perm.
# Description: Parallel Artificial Membrane Permeability Assay (PAMPA) was performed using artificial lipid membrane layers to assess passive permeability of the test compound. Test compounds were diluted to 200 μM in system buffer at pH 5.0, 6.2 and 7.4. The solutions were filtered and 150 μL transferred to a High Sensitivity 96 well UV plate. This was analysed by UV as the reference plate. A 200 μL sample of the 200 μM solution was transferred to the ‘donor’ plate of the PAMPA pIon sandwich plate system. 200 μL of acceptor sink buffer was transferred to the ‘acceptor’ plate which had been previously treated with GIT-O lipid solution across the well filter. Donor and acceptor plates were sandwiched and kept in a humid environment at room temperature for 16 hours. On completion of the incubation the donor and acceptor plates were separated. 150 μL of solution was transferred from each of the donor and acceptor PAMPA sandwich plates into High Sensitivity 96 well UV plates for analysis by UV. at different time points. The concentration of the compound in the acceptor compartment was determined using mass spectrometry. The permeability coefficient (Papp) was calculated based on the rate of appearance of the compound in the acceptor compartment (nm/s).
# [6] = Caco-2 permeability assay; assay type: in vitro ADME; conditions: human, heading: Caco-2 perm., direction not given
# Description: Caco-2 permeability was evaluated using a cell-based assay with Caco-2 cells cultured on permeable membrane inserts. The test compound was added at 10 μM to the apical (donor) compartment, and samples were collected from the basolateral (receiver) compartment at 120 min. The test compound was also added at 10 μM to the basolateral (donor) compartment, and samples were collected from the apical (receiver) compartment at 120 min. The amount of the compound in both compartments was measured using mass spectrometry (LC-MS/MS). The permeability coefficient (Papp, nm/s) apical to basolateral and basolateral to apical, and an efflux ratio were calculated.
# human TRPM4 = human TRPM4 (Homo sapiens, UniProt Q8TD43); assay: QPatch automated patch clamp on TRPM4-expressing HEK293 cells; assay type: cell-based; conditions: hsTRPM4-expressing HEK293 cells
# human TRPM4, sequence (Q8TD43 whole entry): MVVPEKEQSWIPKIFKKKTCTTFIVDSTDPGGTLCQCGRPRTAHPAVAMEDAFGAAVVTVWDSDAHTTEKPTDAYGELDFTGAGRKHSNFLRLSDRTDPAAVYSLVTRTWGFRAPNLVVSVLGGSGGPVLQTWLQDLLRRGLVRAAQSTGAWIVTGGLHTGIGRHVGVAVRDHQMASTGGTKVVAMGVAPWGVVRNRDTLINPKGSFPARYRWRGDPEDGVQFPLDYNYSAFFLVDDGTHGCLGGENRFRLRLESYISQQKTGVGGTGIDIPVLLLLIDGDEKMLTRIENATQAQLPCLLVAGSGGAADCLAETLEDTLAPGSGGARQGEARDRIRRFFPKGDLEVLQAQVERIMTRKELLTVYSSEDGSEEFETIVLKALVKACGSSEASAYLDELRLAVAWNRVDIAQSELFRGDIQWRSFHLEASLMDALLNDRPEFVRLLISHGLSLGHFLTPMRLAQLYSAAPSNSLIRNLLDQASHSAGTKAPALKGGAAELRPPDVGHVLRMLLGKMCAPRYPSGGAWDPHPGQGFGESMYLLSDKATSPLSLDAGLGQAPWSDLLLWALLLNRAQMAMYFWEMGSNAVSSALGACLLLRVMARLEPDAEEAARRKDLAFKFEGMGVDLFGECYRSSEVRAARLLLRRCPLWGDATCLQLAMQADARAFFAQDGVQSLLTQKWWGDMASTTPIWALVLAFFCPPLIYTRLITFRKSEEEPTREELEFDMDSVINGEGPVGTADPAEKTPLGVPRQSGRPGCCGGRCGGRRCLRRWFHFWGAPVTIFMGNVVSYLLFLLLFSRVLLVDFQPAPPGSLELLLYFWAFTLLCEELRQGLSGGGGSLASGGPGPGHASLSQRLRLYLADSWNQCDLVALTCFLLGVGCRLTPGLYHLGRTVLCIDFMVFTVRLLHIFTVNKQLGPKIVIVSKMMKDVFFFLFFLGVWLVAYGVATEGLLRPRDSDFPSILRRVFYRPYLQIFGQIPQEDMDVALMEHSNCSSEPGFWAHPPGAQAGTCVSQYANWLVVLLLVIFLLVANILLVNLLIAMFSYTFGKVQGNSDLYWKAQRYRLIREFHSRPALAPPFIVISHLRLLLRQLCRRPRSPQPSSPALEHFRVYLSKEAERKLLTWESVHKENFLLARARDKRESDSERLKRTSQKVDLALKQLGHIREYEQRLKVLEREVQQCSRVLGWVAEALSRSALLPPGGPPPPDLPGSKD
# Description: as §3, with “For QPatch assays, cells were harvested and re-suspended in SFM (Gibco, 11686029).” left out, “After break-in, channels were consistently open and current through the channels could be observed at a voltage ramp from –100 mV to +100 mV over 500 ms.” left out, “After saline and vehicle application, the channel was desensitized and residual current was used as baseline.” left out
# T1 sequence (P08684 whole entry): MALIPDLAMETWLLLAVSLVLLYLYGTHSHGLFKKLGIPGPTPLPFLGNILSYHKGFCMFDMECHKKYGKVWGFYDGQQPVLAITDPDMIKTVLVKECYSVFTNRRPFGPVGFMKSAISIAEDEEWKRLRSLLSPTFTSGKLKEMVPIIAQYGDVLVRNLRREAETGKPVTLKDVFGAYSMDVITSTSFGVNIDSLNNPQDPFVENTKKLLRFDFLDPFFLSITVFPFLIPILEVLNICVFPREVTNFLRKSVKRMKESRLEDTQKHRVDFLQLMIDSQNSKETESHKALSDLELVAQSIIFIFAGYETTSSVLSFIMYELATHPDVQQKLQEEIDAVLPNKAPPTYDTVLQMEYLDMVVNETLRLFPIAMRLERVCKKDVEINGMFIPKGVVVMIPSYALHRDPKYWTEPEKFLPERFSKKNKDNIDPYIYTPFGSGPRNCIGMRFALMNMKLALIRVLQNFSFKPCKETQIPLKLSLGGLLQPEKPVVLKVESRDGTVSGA
SMILES,CLint scaled at 1 μM [1],IC50 (CYP2D6),IC50 (human TRPM5),CLint scaled at 1 μM [3],"Papp at 16 h, 200 μM [5]",IC50 (human TRPM4),further results
Cc1ccc(-c2ccccc2NCc2nc3ccccc3o2)s1 [CMP354],460 mL/min/kg,> 50 µM,> 10 µM,> 900 mL/min/kg,,,"IC50 (CYP3A4; TDI, read-out: Cyp IC50 TDI 3A4): > 50 µM; IC50 (CYP3A4; read-out: Cyp IC50 3A4): > 50 µM; half-life ([2]; brain, ip, read-out: Brain half-life (converted)): 2.6 h; half-life ([2]; brain, iv, read-out: Brain half-life (converted)): 1.6 h; half-life ([2]; heart, ip, read-out: Heart half-life (converted)): 4.3 h; half-life ([2]; heart, iv, read-out: Heart half-life (converted)): 4.8 h; half-life ([2]; plasma, ip, read-out: Plasma half-life (converted)): 4.5 h; half-life ([2]; plasma, iv, read-out: Plasma half-life (converted)): 1.5 h; IC50 [4]: > 10 µM"
CNc1cccc(-c2ccccc2NCc2nc3ccccc3o2)c1 [CMP462],302 mL/min/kg,> 50 µM,> 30 µM,900 mL/min/kg,25 ×10⁻⁶ cm/s,,"IC50 (CYP 2C19): 4 µM; Papp at 120 min, 10 μM [6]: 23.3 ×10⁻⁶ cm/s"
Nc1cccc(-c2ccccc2NCc2nc3ccccc3o2)c1 [CMP465],216 mL/min/kg,> 50 µM,> 30 µM,393 mL/min/kg,37.9 ×10⁻⁶ cm/s,,"Papp at 120 min, 10 μM [6]: 18.9 ×10⁻⁶ cm/s"
CNc1ccc(-c2ccccc2NCc2nc3ccccc3o2)cc1 [CMP470],225 mL/min/kg,> 50 µM,> 30 µM,900 mL/min/kg,22 ×10⁻⁶ cm/s,,
CCCNc1cccc(-c2ccccc2NCc2nc3ccccc3o2)c1 [CMP471],,,> 30 µM,,,,"IC50 (CYP3A4; human, pH 7.4): > 50 µM; IC50 (CYP2D6; human, pH 7.4): > 50 µM; PAMPA perm. [5]: no detection"
O=C(CCc1ccccc1)Nc1ccc(Cl)cc1C(=O)O [CMP493],,,> 30 µM,,,0.53 µM,
O=C(CCc1ccccc1)Nc1ccc(C(F)(F)F)cc1C(=O)O [CMP502],,,> 30 µM,,,0.6 µM,
O=C(CCc1ccccc1Cl)Nc1ccc(Br)cc1C(=O)O [CMP510],,,19 µM,,,0.72 µM,
O=C(CCc1cccc(Cl)c1)Nc1ccc(Br)cc1C(=O)O [CMP512],,,0.94 µM,,,0.41 µM,
